≈ marks a conversion by molar mass, not a printed value.
Columns and labels:
[1] = test system: Staphylococcus epidermidis; test: Antibacterial activity against methicillin-sensitive Staphylococcus epidermidis ATCC 12228 after 18 hrs by CLSI broth microdilution method; assay type: functional; conditions: ATCC 12228, 18 h
[2] = test system: Staphylococcus epidermidis; test: Antibacterial activity against methicillin-resistant Staphylococcus epidermidis 12-8 after 18 hrs by CLSI broth microdilution method; assay type: functional; conditions: 12-8, 18 h
Staphylococcus aureus [3] = test: Antibacterial activity against methicillin-sensitive Staphylococcus aureus ATCC 29213 after 18 hrs by CLSI broth microdilution method; assay type: functional; conditions: ATCC 29213, 18 h
Staphylococcus aureus [4] = test: Antibacterial activity against methicillin-resistant Staphylococcus aureus 12-33 after 18 hrs by CLSI broth microdilution method; assay type: functional; conditions: 12-33, 18 h
Enterococcus faecalis [5] = test: Antibacterial activity against vancomycin-sensitive Enterococcus faecalis ATCC 29212 after 18 hrs by CLSI broth microdilution method; assay type: functional; conditions: ATCC 29212, 18 h
Enterococcus faecalis [6] = test: Antibacterial activity against vancomycin-resistant Enterococcus faecalis 09-9 after 18 hrs by CLSI broth microdilution method; assay type: functional; conditions: 09-9, 18 h
Enterococcus faecium [7] = test: Antibacterial activity against vancomycin-resistant Enterococcus faecium ATCC 700221 after 18 hrs by CLSI broth microdilution method; assay type: functional; conditions: ATCC 700221, 18 h
Enterococcus faecium [8] = test: Antibacterial activity against vancomycin-sensitive Enterococcus faecium 12-3 after 18 hrs by CLSI broth microdilution method; assay type: functional; conditions: 12-3, 18 h
Escherichia coli [9] = test: Antibacterial activity against extended-spectrum beta-lactamase deficient Escherichia coli ATCC 25922 after 18 hrs by CLSI broth microdilution method; assay type: functional; conditions: ATCC 25922, 18 h
Escherichia coli [10] = test: Antibacterial activity against extended-spectrum beta-lactamase harboring Escherichia coli 12-15 after 18 hrs by CLSI broth microdilution method; assay type: functional; conditions: 12-15, 18 h
Klebsiella pneumoniae [11] = test: Antibacterial activity against extended-spectrum beta-lactamase harboring Klebsiella pneumoniae ATCC 700603 after 18 hrs by CLSI broth microdilution method; assay type: functional; conditions: Klebsiella pneumoniae, 700603, 18 h
Klebsiella pneumoniae [12] = test: Antibacterial activity against new delhi metallo-beta-lactamase-1 harboring Klebsiella pneumoniae ATCC BAA-2146 after 18 hrs by CLSI broth microdilution method; assay type: functional; conditions: ATCC BAA-2146, 18 h
Klebsiella pneumoniae [13] = test: Antibacterial activity against extended-spectrum beta-lactamase harboring Klebsiella pneumoniae 12-8 after 18 hrs by CLSI broth microdilution method; assay type: functional; conditions: 12-8, 18 h
Pseudomonas aeruginosa [14] = test: Antibacterial activity against Pseudomonas aeruginosa ATCC 27853 after 18 hrs by CLSI broth microdilution method; assay type: functional; conditions: ATCC 27853, 18 h
[15] = test system: Acinetobacter calcoaceticus; test: Antibacterial activity against Acinetobacter calcoaceticus ATCC 19606 after 18 hrs by CLSI broth microdilution method; assay type: functional; conditions: ATCC 19606, 18 h
Enterobacter cloacae = test: Antibacterial activity against Enterobacter cloacae ATCC 43560 after 18 hrs by CLSI broth microdilution method; assay type: functional; conditions: ATCC 43560, 18 h
Proteus mirabilis = test: Antibacterial activity against Proteus mirabilis 12-6 after 18 hrs by CLSI broth microdilution method; assay type: functional; conditions: 12-6, 18 h
[16] = Cytotoxicity against HEK293T cells assessed as reduction in cell viability after 48 hrs by MTS assay; assay type: cell-based, HEK-293T; conditions: human
[17] = test system: Staphylococcus epidermidis; test: Antibacterial activity against methicillin-sensitive Staphylococcus epidermidis 12-6 after 18 hrs by CLSI broth microdilution method; assay type: functional; conditions: 12-6, 18 h
Staphylococcus aureus [18] = test: Antibacterial activity against methicillin-resistant Staphylococcus aureus ATCC 33591 after 18 hrs by CLSI broth microdilution method; assay type: functional; conditions: ATCC 33591, 18 h
Staphylococcus aureus [19] = test: Antibacterial activity against methicillin-sensitive Staphylococcus aureus 15 after 18 hrs by CLSI broth microdilution method; assay type: functional; conditions: Staphylococcus aureus, 15, 18 h
Staphylococcus aureus [20] = test: Antibacterial activity against methicillin-sensitive Staphylococcus aureus 12-28 after 18 hrs by CLSI broth microdilution method; assay type: functional; conditions: 12-28, 18 h
Enterococcus faecalis [21] = test: Antibacterial activity against vancomycin-resistant Enterococcus faecalis ATCC 51299 after 18 hrs by CLSI broth microdilution method; assay type: functional; conditions: ATCC 51299, 18 h
Enterococcus faecalis [22] = test: Antibacterial activity against vancomycin-sensitive Enterococcus faecalis 12-5 after 18 hrs by CLSI broth microdilution method; assay type: functional; conditions: 12-5, 18 h
Enterococcus faecium [23] = test: Antibacterial activity against vancomycin-resistant Enterococcus faecium 12-1 after 18 hrs by CLSI broth microdilution method; assay type: functional; conditions: 12-1, 18 h
Escherichia coli [24] = test: Antibacterial activity against extended-spectrum beta-lactamase deficient Escherichia coli 1515 after 18 hrs by CLSI broth microdilution method; assay type: functional; conditions: Escherichia coli, 1515, 18 h
Escherichia coli [25] = test: Antibacterial activity against extended-spectrum beta-lactamase deficient Escherichia coli 12-14 after 18 hrs by CLSI broth microdilution method; assay type: functional; conditions: 12-14, 18 h
Klebsiella pneumoniae [26] = test: Antibacterial activity against extended-spectrum beta-lactamase deficient Klebsiella pneumoniae 7 after 18 hrs by CLSI broth microdilution method; assay type: functional; conditions: Klebsiella pneumoniae, 7, 18 h
Klebsiella pneumoniae [27] = test: Antibacterial activity against extended-spectrum beta-lactamase deficient Klebsiella pneumoniae 12-4 after 18 hrs by CLSI broth microdilution method; assay type: functional; conditions: 12-4, 18 h
Pseudomonas aeruginosa [28] = test: Antibacterial activity against Pseudomonas aeruginosa PAO1 after 18 hrs by CLSI broth microdilution method; assay type: functional; conditions: PAO1, 18 h
Pseudomonas aeruginosa [29] = test: Antibacterial activity against Pseudomonas aeruginosa 12-16 after 18 hrs by CLSI broth microdilution method; assay type: functional; conditions: 12-16, 18 h
Klebsiella aerogenes = test: Antibacterial activity against Enterobacter aerogenes ATCC 13048 after 18 hrs by CLSI broth microdilution method; assay type: functional; conditions: ATCC 13048, 18 h
Serratia marcescens = test: Antibacterial activity against Serratia marcescens ATCC 21074 after 18 hrs by CLSI broth microdilution method; assay type: functional; conditions: ATCC 21074, 18 h
Providencia rettgeri = test: Antibacterial activity against Providencia rettgeri ATCC 31052 after 18 hrs by CLSI broth microdilution method; assay type: functional; conditions: ATCC 31052, 18 h
Proteus vulgaris = test: Antibacterial activity against Proteus vulgaris ATCC 29905 after 18 hrs by CLSI broth microdilution method; assay type: functional; conditions: ATCC 29905, 18 h
[30] = test system: Stenotrophomonas maltophilia; test: Antibacterial activity against Stenotrophomonas maltophilia ATCC 13636 after 18 hrs by CLSI broth microdilution method; assay type: functional; conditions: ATCC 13636, 18 h
Citrobacter freundii = test: Antibacterial activity against Citrobacter freundii ATCC 43864 after 18 hrs by CLSI broth microdilution method; assay type: functional; conditions: ATCC 43864, 18 h

| Structure (SMILES) | MIC [1] [µg/mL] | MIC [2] [µg/mL] | MIC (Staphylococcus aureus [3]) [µg/mL] | MIC (Staphylococcus aureus [4]) [µg/mL] | MIC (Enterococcus faecalis [5]) [µg/mL] | MIC (Enterococcus faecalis [6]) [µg/mL] | MIC (Enterococcus faecium [7]) [µg/mL] | MIC (Enterococcus faecium [8]) [µg/mL] | MIC (Escherichia coli [9]) [µg/mL] | MIC (Escherichia coli [10]) [µg/mL] | MIC (Klebsiella pneumoniae [11]) [µg/mL] | MIC (Klebsiella pneumoniae [12]) [µg/mL] | MIC (Klebsiella pneumoniae [13]) [µg/mL] | MIC (Pseudomonas aeruginosa [14]) [µg/mL] | MIC [15] [µg/mL] | MIC (Enterobacter cloacae) [µg/mL] | MIC (Proteus mirabilis) [µg/mL] | CC50 at 48 h [16] [µg/mL] | MIC [17] [µg/mL] | MIC (Staphylococcus aureus [18]) [µg/mL] | also measured |
| --- | --- | --- | --- | --- | --- | --- | --- | --- | --- | --- | --- | --- | --- | --- | --- | --- | --- | --- | --- | --- | --- |
| CNC(=N)c1ccc2cc(-c3ccc(-c4cc5ccc(C(=N)NC)cc5[nH]4)cc3)[nH]c2c1 | 0.12 (≈ 0.285 µM) | 0.25 (≈ 0.595 µM) | 0.25 (≈ 0.595 µM) | 0.25 (≈ 0.595 µM) | 2 (≈ 4.76 µM) | 1 (≈ 2.38 µM) | 0.5 (≈ 1.19 µM) | 2 (≈ 4.76 µM) | 4 (≈ 9.51 µM) | 8 (≈ 19 µM) | 64 (≈ 152 µM) | 64 (≈ 152 µM) | 32 (≈ 76.1 µM) | 16 (≈ 38 µM) | 128 (≈ 304 µM) | 8 (≈ 19 µM) | 64 (≈ 152 µM) | 28 (≈ 66.6 µM) | 0.12 (≈ 0.285 µM) | 0.25 (≈ 0.595 µM) | MIC (Staphylococcus aureus [19]): 0.25 µg/mL (≈ 0.595 µM); MIC (Staphylococcus aureus [20]): 0.25 µg/mL (≈ 0.595 µM); MIC (Enterococcus faecalis [21]): 2 µg/mL (≈ 4.76 µM); MIC (Enterococcus faecalis [22]): 2 µg/mL (≈ 4.76 µM); MIC (Enterococcus faecium [23]): 0.5 µg/mL (≈ 1.19 µM); MIC (Escherichia coli [24]): 16 µg/mL (≈ 38 µM); MIC (Escherichia coli [25]): 8 µg/mL (≈ 19 µM); MIC (Klebsiella pneumoniae [26]): 16 µg/mL (≈ 38 µM); MIC (Klebsiella pneumoniae [27]): 32 µg/mL (≈ 76.1 µM); MIC (Pseudomonas aeruginosa [28]): 64 µg/mL (≈ 152 µM); MIC (Pseudomonas aeruginosa [29]): 64 µg/mL (≈ 152 µM); MIC (Klebsiella aerogenes): 16 µg/mL (≈ 38 µM); MIC (Serratia marcescens): 64 µg/mL (≈ 152 µM); MIC (Providencia rettgeri): 64 µg/mL (≈ 152 µM); MIC (Proteus vulgaris): 64 µg/mL (≈ 152 µM); MIC [30]: 16 µg/mL (≈ 38 µM); MIC (Citrobacter freundii): 16 µg/mL (≈ 38 µM) |
| N=C(c1ccc2cc(-c3ccc(-c4cc5ccc(C(=N)N6CC=CCC6)cc5[nH]4)cc3)[nH]c2c1)N1CC=CCC1 | 1 (≈ 1.91 µM) | 2 (≈ 3.81 µM) | 2 (≈ 3.81 µM) | 2 (≈ 3.81 µM) | 4 (≈ 7.62 µM) | 4 (≈ 7.62 µM) | 4 (≈ 7.62 µM) | 4 (≈ 7.62 µM) | 8 (≈ 15.2 µM) | 8 (≈ 15.2 µM) | 32 (≈ 61 µM) | 8 (≈ 15.2 µM) | 16 (≈ 30.5 µM) | > 128 | 16 (≈ 30.5 µM) | 8 (≈ 15.2 µM) | 32 (≈ 61 µM) | 13.3 (≈ 25.4 µM) | 4 (≈ 7.62 µM) | 1 (≈ 1.91 µM) | MIC (Staphylococcus aureus [19]): 2 µg/mL (≈ 3.81 µM); MIC (Staphylococcus aureus [20]): 2 µg/mL (≈ 3.81 µM); MIC (Enterococcus faecalis [21]): 8 µg/mL (≈ 15.2 µM); MIC (Enterococcus faecalis [22]): 8 µg/mL (≈ 15.2 µM); MIC (Enterococcus faecium [23]): 4 µg/mL (≈ 7.62 µM); MIC (Escherichia coli [24]): 8 µg/mL (≈ 15.2 µM); MIC (Escherichia coli [25]): 8 µg/mL (≈ 15.2 µM); MIC (Klebsiella pneumoniae [26]): 16 µg/mL (≈ 30.5 µM); MIC (Klebsiella pneumoniae [27]): 16 µg/mL (≈ 30.5 µM); MIC (Pseudomonas aeruginosa [28]): > 128 µg/mL; MIC (Pseudomonas aeruginosa [29]): > 128 µg/mL; MIC (Klebsiella aerogenes): 8 µg/mL (≈ 15.2 µM); MIC (Serratia marcescens): 64 µg/mL (≈ 122 µM); MIC (Providencia rettgeri): 8 µg/mL (≈ 15.2 µM); MIC (Proteus vulgaris): 16 µg/mL (≈ 30.5 µM); MIC [30]: 16 µg/mL (≈ 30.5 µM); MIC (Citrobacter freundii): 8 µg/mL (≈ 15.2 µM) |

Source: ChEMBL document CHEMBL4229379, “Synthesis and structure-activity relationship of novel bisindole amidines active against MDR Gram-positive and Gram-negative bacteria” (Eur J Med Chem, 2018)
